# Data as given in PubChem BioAssay (NCI).
#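 In this assay, cells in 96-well plates receive the compound at five concentrations for 48 hours. Endpoints are linearly interpolated between the surrounding concentrations. Definition used: TGI = concentration required for complete inhibition of growth.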
# Key:
# Experiment in all cases: NCI anticancer screen, dose series, 48 h
# CCRF-CEM leukemia = system: CCRF-CEM leukemia
# TK-10 renal = system: TK-10 renal
# EKVX NSCLC = system: EKVX NSCLC
# OVCAR-3 ovarian = system: OVCAR-3 ovarian
# MOLT-4 leukemia = system: MOLT-4 leukemia
# MCF7 breast = system: MCF7 breast
# MDA-N = system: MDA-N
# CAKI-1 renal = system: CAKI-1 renal
# RXF 393 renal = system: RXF 393 renal
# NCI-H522 lung = system: NCI-H522 lung
# SK-MEL-5 melanoma = system: SK-MEL-5 melanoma
# SF-295 CNS = system: SF-295 CNS
# SR leukemia = system: SR leukemia
# HCT-116 colon = system: HCT-116 colon
# MDA-MB-435 = system: MDA-MB-435
# UACC-257 melanoma = system: UACC-257 melanoma
# SK-OV-3 ovarian = system: SK-OV-3 ovarian
# HS 578T breast = system: HS 578T breast
# K-562 leukemia = system: K-562 leukemia
# M14 melanoma = system: M14 melanoma
# HOP-62 NSCLC = system: HOP-62 NSCLC
# COLO 205 colon = system: COLO 205 colon
# NCI-H226 lung = system: NCI-H226 lung
# SNB-19 CNS = system: SNB-19 CNS
# A498 renal = system: A498 renal
# SK-MEL-2 melanoma = system: SK-MEL-2 melanoma
# HT29 colon = system: HT29 colon
# OVCAR-8 ovarian = system: OVCAR-8 ovarian
# OVCAR-5 ovarian = system: OVCAR-5 ovarian
# SF-539 CNS = system: SF-539 CNS
# A549 NSCLC = system: A549 NSCLC
# SF-268 CNS = system: SF-268 CNS
# T-47D breast = system: T-47D breast
# MDA-MB-231 breast = system: MDA-MB-231 breast
# PC-3 prostate = system: PC-3 prostate
# 786-0 renal = system: 786-0 renal
# U251 CNS = system: U251 CNS
# NCI-H23 lung = system: NCI-H23 lung
# NCI/ADR-RES ovarian = system: NCI/ADR-RES ovarian
# BT-549 breast = system: BT-549 breast
# IGROV1 ovarian = system: IGROV1 ovarian
# MALME-3M melanoma = system: MALME-3M melanoma
# SN12C renal = system: SN12C renal
# UACC-62 melanoma = system: UACC-62 melanoma
# HCC-2998 colon = system: HCC-2998 colon
# DU-145 prostate = system: DU-145 prostate
# NCI-H460 lung = system: NCI-H460 lung
# HOP-92 NSCLC = system: HOP-92 NSCLC
# SNB-75 CNS = system: SNB-75 CNS
# HCT-15 colon = system: HCT-15 colon
# SW-620 colon = system: SW-620 colon
# OVCAR-4 ovarian = system: OVCAR-4 ovarian
# SK-MEL-28 melanoma = system: SK-MEL-28 melanoma
# LOX IMVI melanoma = system: LOX IMVI melanoma
# RPMI-8226 leukemia = system: RPMI-8226 leukemia
# UO-31 renal = system: UO-31 renal
# ACHN renal = system: ACHN renal
# KM12 colon = system: KM12 colon
# HL-60(TB) leukemia = system: HL-60(TB) leukemia
smiles,measurement,setting,value
Clc1c(Cl)c(Cl)c2nn(C3CCCO3)nc2c1Cl (centres undefined),TGI,CCRF-CEM leukemia,> 100 µM
same,TGI,TK-10 renal,> 100 µM
same,TGI,EKVX NSCLC,> 100 µM
same,TGI,OVCAR-3 ovarian,> 100 µM
same,TGI,MOLT-4 leukemia,> 100 µM
same,TGI,MCF7 breast,> 100 µM
same,TGI,MDA-N,> 100 µM
same,TGI,CAKI-1 renal,> 100 µM
same,TGI,RXF 393 renal,> 100 µM
same,TGI,NCI-H522 lung,> 100 µM
same,TGI,SK-MEL-5 melanoma,> 100 µM
same,TGI,SF-295 CNS,> 100 µM
same,TGI,SR leukemia,> 100 µM
same,TGI,HCT-116 colon,> 100 µM
same,TGI,MDA-MB-435,> 100 µM
same,TGI,UACC-257 melanoma,> 100 µM
same,TGI,SK-OV-3 ovarian,> 100 µM
same,TGI,HS 578T breast,49.5 µM
same,TGI,K-562 leukemia,98.3 µM
same,TGI,M14 melanoma,> 100 µM
same,TGI,HOP-62 NSCLC,> 100 µM
same,TGI,COLO 205 colon,> 100 µM
same,TGI,NCI-H226 lung,> 100 µM
same,TGI,SNB-19 CNS,> 100 µM
same,TGI,A498 renal,> 100 µM
same,TGI,SK-MEL-2 melanoma,> 100 µM
same,TGI,HT29 colon,> 100 µM
same,TGI,OVCAR-8 ovarian,> 100 µM
same,TGI,OVCAR-5 ovarian,> 100 µM
same,TGI,SF-539 CNS,> 100 µM
same,TGI,A549 NSCLC,> 100 µM
same,TGI,SF-268 CNS,> 100 µM
same,TGI,T-47D breast,> 100 µM
same,TGI,MDA-MB-231 breast,> 100 µM
same,TGI,PC-3 prostate,> 100 µM
same,TGI,786-0 renal,> 100 µM
same,TGI,U251 CNS,> 100 µM
same,TGI,NCI-H23 lung,> 100 µM
same,TGI,NCI/ADR-RES ovarian,> 100 µM
same,TGI,BT-549 breast,80.5 µM
same,TGI,IGROV1 ovarian,> 100 µM
same,TGI,MALME-3M melanoma,> 100 µM
same,TGI,SN12C renal,> 100 µM
same,TGI,UACC-62 melanoma,> 100 µM
same,TGI,HCC-2998 colon,> 100 µM
same,TGI,DU-145 prostate,> 100 µM
CC(C)(C)C(=O)OCC1CCC[N+]2(C)CCCCC12 (centres undefined),TGI,CCRF-CEM leukemia,> 100 µM
same,TGI,TK-10 renal,> 100 µM
same,TGI,EKVX NSCLC,> 100 µM
same,TGI,NCI-H460 lung,> 100 µM
same,TGI,HOP-92 NSCLC,> 100 µM
same,TGI,OVCAR-3 ovarian,> 100 µM
same,TGI,MOLT-4 leukemia,> 100 µM
same,TGI,MCF7 breast,> 100 µM
same,TGI,MDA-N,> 100 µM
same,TGI,CAKI-1 renal,> 100 µM
same,TGI,RXF 393 renal,> 100 µM
same,TGI,SK-MEL-5 melanoma,> 100 µM
same,TGI,SF-295 CNS,> 100 µM
same,TGI,SR leukemia,> 100 µM
same,TGI,HCT-116 colon,> 100 µM
same,TGI,MDA-MB-435,> 100 µM
same,TGI,UACC-257 melanoma,> 100 µM
same,TGI,SNB-75 CNS,> 100 µM
same,TGI,HCT-15 colon,> 100 µM
same,TGI,SK-OV-3 ovarian,> 100 µM
same,TGI,HS 578T breast,> 100 µM
same,TGI,K-562 leukemia,> 100 µM
same,TGI,SW-620 colon,> 100 µM
same,TGI,M14 melanoma,> 100 µM
same,TGI,HOP-62 NSCLC,> 100 µM
same,TGI,COLO 205 colon,> 100 µM
same,TGI,NCI-H226 lung,> 100 µM
same,TGI,SNB-19 CNS,> 100 µM
same,TGI,A498 renal,> 100 µM
same,TGI,SK-MEL-2 melanoma,> 100 µM
same,TGI,OVCAR-4 ovarian,> 100 µM
same,TGI,HT29 colon,> 100 µM
same,TGI,OVCAR-8 ovarian,> 100 µM
same,TGI,OVCAR-5 ovarian,> 100 µM
same,TGI,SF-539 CNS,> 100 µM
same,TGI,A549 NSCLC,> 100 µM
same,TGI,SF-268 CNS,> 100 µM
same,TGI,T-47D breast,> 100 µM
same,TGI,SK-MEL-28 melanoma,> 100 µM
same,TGI,MDA-MB-231 breast,> 100 µM
same,TGI,PC-3 prostate,> 100 µM
same,TGI,LOX IMVI melanoma,> 100 µM
same,TGI,786-0 renal,> 100 µM
same,TGI,U251 CNS,> 100 µM
same,TGI,NCI-H23 lung,> 100 µM
same,TGI,RPMI-8226 leukemia,> 100 µM
same,TGI,UO-31 renal,> 100 µM
same,TGI,NCI/ADR-RES ovarian,> 100 µM
same,TGI,BT-549 breast,> 100 µM
same,TGI,IGROV1 ovarian,> 100 µM
same,TGI,ACHN renal,> 100 µM
same,TGI,MALME-3M melanoma,> 100 µM
same,TGI,SN12C renal,> 100 µM
same,TGI,UACC-62 melanoma,> 100 µM
same,TGI,KM12 colon,> 100 µM
same,TGI,HCC-2998 colon,> 100 µM
same,TGI,DU-145 prostate,> 100 µM
Nc1nc(Cl)c(N)c(NC23CC4CC(CC(C4)C2)C3)n1,TGI,CCRF-CEM leukemia,5 µM
same,TGI,TK-10 renal,5.54 µM
same,TGI,EKVX NSCLC,5.36 µM
same,TGI,NCI-H460 lung,17.7 µM
same,TGI,HOP-92 NSCLC,> 19.9 µM
same,TGI,OVCAR-3 ovarian,3.62 µM
same,TGI,MOLT-4 leukemia,4.81 µM
same,TGI,MCF7 breast,3.78 µM
same,TGI,MDA-N,3.31 µM
same,TGI,CAKI-1 renal,3.84 µM
same,TGI,RXF 393 renal,3.24 µM
same,TGI,NCI-H522 lung,4.26 µM
same,TGI,SK-MEL-5 melanoma,3.82 µM
same,TGI,SF-295 CNS,11.3 µM
same,TGI,SR leukemia,> 22.2 µM
same,TGI,HCT-116 colon,2.92 µM
same,TGI,MDA-MB-435,3.41 µM
same,TGI,UACC-257 melanoma,7.16 µM
same,TGI,SNB-75 CNS,4.91 µM
same,TGI,HCT-15 colon,13.3 µM
same,TGI,SK-OV-3 ovarian,17.4 µM
same,TGI,HS 578T breast,> 100 µM
same,TGI,K-562 leukemia,6.87 µM
same,TGI,SW-620 colon,2.94 µM
same,TGI,M14 melanoma,3.02 µM
same,TGI,HOP-62 NSCLC,4.3 µM
same,TGI,COLO 205 colon,3.13 µM
same,TGI,NCI-H226 lung,4.22 µM
same,TGI,SNB-19 CNS,3.42 µM
same,TGI,A498 renal,8.13 µM
same,TGI,SK-MEL-2 melanoma,1.16 µM
same,TGI,OVCAR-4 ovarian,4.21 µM
same,TGI,HT29 colon,3.42 µM
same,TGI,OVCAR-8 ovarian,6.59 µM
same,TGI,OVCAR-5 ovarian,2.84 µM
same,TGI,SF-539 CNS,3.72 µM
same,TGI,A549 NSCLC,6.16 µM
same,TGI,SF-268 CNS,> 20.5 µM
same,TGI,T-47D breast,3.61 µM
same,TGI,SK-MEL-28 melanoma,3.6 µM
same,TGI,MDA-MB-231 breast,3.83 µM
same,TGI,PC-3 prostate,2.97 µM
same,TGI,LOX IMVI melanoma,> 100 µM
same,TGI,786-0 renal,3.03 µM
same,TGI,U251 CNS,3.06 µM
same,TGI,NCI-H23 lung,8.43 µM
same,TGI,RPMI-8226 leukemia,5.02 µM
same,TGI,UO-31 renal,3.55 µM
same,TGI,BT-549 breast,6.76 µM
same,TGI,IGROV1 ovarian,> 100 µM
same,TGI,ACHN renal,4.69 µM
same,TGI,MALME-3M melanoma,10.1 µM
same,TGI,SN12C renal,3.32 µM
same,TGI,UACC-62 melanoma,3.64 µM
same,TGI,KM12 colon,3.67 µM
same,TGI,HCC-2998 colon,7.89 µM
same,TGI,DU-145 prostate,7.05 µM
CC(=O)OCc1cc(CCC(=O)NCCNc2c3ccccc3nc3ccccc23)cc(COC(C)=O)c1O[Si](C)(C)C(C)(C)C,TGI,CCRF-CEM leukemia,20.5 µM
same,TGI,TK-10 renal,23.2 µM
same,TGI,EKVX NSCLC,36.1 µM
same,TGI,NCI-H460 lung,21.6 µM
same,TGI,HOP-92 NSCLC,22.7 µM
same,TGI,OVCAR-3 ovarian,5.68 µM
same,TGI,MOLT-4 leukemia,5.25 µM
same,TGI,MCF7 breast,4.57 µM
same,TGI,MDA-N,21.9 µM
same,TGI,RXF 393 renal,9.37 µM
same,TGI,NCI-H522 lung,21.8 µM
same,TGI,SF-295 CNS,11.7 µM
same,TGI,SR leukemia,4.91 µM
same,TGI,HCT-116 colon,31.1 µM
same,TGI,MDA-MB-435,8.06 µM
same,TGI,UACC-257 melanoma,14.6 µM
same,TGI,HCT-15 colon,33.3 µM
same,TGI,SK-OV-3 ovarian,27.7 µM
same,TGI,HS 578T breast,13.9 µM
same,TGI,K-562 leukemia,6.49 µM
same,TGI,SW-620 colon,30.1 µM
same,TGI,M14 melanoma,23.2 µM
same,TGI,HOP-62 NSCLC,32.5 µM
same,TGI,COLO 205 colon,15.9 µM
same,TGI,NCI-H226 lung,4.72 µM
same,TGI,SNB-19 CNS,31.2 µM
same,TGI,A498 renal,6.1 µM
same,TGI,SK-MEL-2 melanoma,23.8 µM
same,TGI,OVCAR-4 ovarian,21.1 µM
same,TGI,HT29 colon,7.38 µM
same,TGI,OVCAR-8 ovarian,39.9 µM
same,TGI,OVCAR-5 ovarian,29.1 µM
same,TGI,SF-539 CNS,4.99 µM
same,TGI,A549 NSCLC,24.4 µM
same,TGI,T-47D breast,5.73 µM
same,TGI,HL-60(TB) leukemia,6.2 µM
same,TGI,SK-MEL-28 melanoma,18.2 µM
same,TGI,MDA-MB-231 breast,11.6 µM
same,TGI,PC-3 prostate,29.3 µM
same,TGI,LOX IMVI melanoma,3.58 µM
same,TGI,786-0 renal,31.3 µM
same,TGI,U251 CNS,19.7 µM
same,TGI,NCI-H23 lung,34.7 µM
same,TGI,RPMI-8226 leukemia,5.77 µM
same,TGI,UO-31 renal,31.1 µM
same,TGI,NCI/ADR-RES ovarian,45.9 µM
same,TGI,BT-549 breast,34.2 µM
same,TGI,IGROV1 ovarian,27.6 µM
same,TGI,ACHN renal,30.6 µM
same,TGI,MALME-3M melanoma,25.6 µM
same,TGI,SN12C renal,3.38 µM
same,TGI,UACC-62 melanoma,19.5 µM
same,TGI,KM12 colon,15.4 µM
same,TGI,DU-145 prostate,28.1 µM
